Patent US9513294B2, “Megastokes amino-triazolyl-BODIPY compounds and applications to live neuron staining and human serum albumin FA1 drug site probing” (National University of Singapore, priority 2012, dated 2016)

Legend:
[1] = Quantum yield measurements versus Acridine Yellow in EtOH; format: physicochemical; conditions: for φ (quantum yield): excitation 460 nm; for φ (%): MKAC compound library, quantum yield
Method: (§1) ^1H-NMR, ^19F-NMR and ^13C-NMR spectra were recorded on Bruker ACF300 (300 MHz), DPX300 (300 MHz) and AMX500 (500 MHz) spectrometers. High resolution mass spectra (ESI) were obtained on a Finnigan/MAT 95XL-T spectrometer. Spectroscopic and quantum yield data were measured on a SpectraMax M2 spectrophotometer (Molecular Devices). Data analysis was performed using GraphPrism 5.0. Analytical characterization was performed on a HPLC-MS (Agilent-1200 series) with a DAD detector and a single quadrupole mass spectrometer (6130 series) with an ESI probe. Analytical HPLC method: eluents, A: H2O (0.1% HCOOH), B: CH3CN (0.1% HCOOH), gradient 5% B to 95% B (10 min). Reverse-phase Phenomenex C18 Luna column (4.6×50 mm^2, 3.5 […]), flow rate: 1 mL/min.
Quantum yields were calculated by measuring the integrated emission area of the fluorescent spectra and comparing to the area measured for Acridine Yellow in EtOH when excited at 460 nm (Φfluorescence^AcridineYellow=0.47). Quantum yields for the amino-triazolyl-BODIPYs were calculated using the equation below, where F represents the area of fluorescent emission, η is the refractive index of the solvent, and Abs is absorbance at the excitation wavelength selected for standards and samples. Emission was integrated between 510 and 700 nm.

[2] = Absorbance and fluorescence emission spectra (SpectraMax M2); format: physicochemical; conditions: for λmax Abs. (nm) / λmax Em. (nm): MKAC compound library
Method: BDC-8 (Blue): absorbance λmax=473 nm, emission λmax=585 nm; MK101-8 (Green): absorbance λmax=474 nm, emission λmax=563 nm; MKHA374-48 (Yellow): absorbance λmax=468 nm, λem=557 nm. The corresponding spectra of a reported BODIPY (BD-27; Red) are also included for comparison: absorbance λmax=551 nm, emission λmax=568 nm. The structures of BDC-8, MK101-8, MKHA374-48 and BD-27 are also depicted.
as §1

| SMILES | φ (quantum yield) ([1]; BDC library, Table 2) [%] | λmax Absorp. ([2]; BDC library, Table 2) [nm] | λmax Emission ([2]; BDC library, Table 2) [nm] | also measured |
| --- | --- | --- | --- | --- |
| CCCCCC(O)c1cn(-c2ccc3n2[B-](F)(F)[N+]2=C(N4CCCCC4)C=CC2=C3c2ccc(NC(C)=O)cc2)nn1 (racemic) [BDCAC-69] | – | – | – | φ (quantum yield) ([1]; BDCAC library, Table 3): 0.8%; λmax Absorp. ([2]; BDCAC library, Table 3): 468 nm; λmax Emission ([2]; BDCAC library, Table 3): 587 nm |
| CCCC(C)c1cn(-c2ccc3n2[B-](F)(F)[N+]2=C(N4CCCCC4)C=CC2=C3c2ccc(NC(=O)CCl)cc2)nn1 (racemic) [BDCCA-3] | – | – | – | φ (quantum yield) ([1]; BDCCA library, Table 4): 0.9%; λmax Absorp. ([2]; BDCCA library, Table 4): 467 nm; λmax Emission ([2]; BDCCA library, Table 4): 587 nm |
| CCCCCC(O)c1cn(-c2ccc3n2[B-](F)(F)[N+]2=C(N4CCCCC4)C=CC2=C3c2ccc(NC(=O)CCl)cc2)nn1 (racemic) [BDCCA-69] | – | – | – | φ (quantum yield) ([1]; BDCCA library, Table 4): 0.7%; λmax Absorp. ([2]; BDCCA library, Table 4): 467 nm; λmax Emission ([2]; BDCCA library, Table 4): 587 nm |
| CCCC(C)c1cn(-c2ccc3n2[B-](F)(F)[N+]2=C(NCc4cc(OC)ccc4OC)C=CC2=C3c2ccc(NC(C)=O)cc2)nn1 (racemic) [MKAC181-3] | – | – | – | φ (%) [1]: 15.41%; λmax Abs. (nm) ([2]; absorbance maximum): 465 nm; λmax Em. (nm) ([2]; fluorescence emission maximum): 562 nm |
| CCCCCC(O)c1cn(-c2ccc3n2[B-](F)(F)[N+]2=C(NCc4cc(OC)ccc4OC)C=CC2=C3c2ccc(NC(C)=O)cc2)nn1 (racemic) [MKAC181-69] | – | – | – | φ (%) [1]: 16.50%; λmax Abs. (nm) ([2]; absorbance maximum): 465 nm; λmax Em. (nm) ([2]; fluorescence emission maximum): 561 nm |
| CCCC(C)c1cn(-c2ccc3n2[B-](F)(F)[N+]2=C(N(C)Cc4ccccc4)C=CC2=C3c2ccc(NC(C)=O)cc2)nn1 (racemic) [MKAC195-3] | – | – | – | φ (%) [1]: 6.53%; λmax Abs. (nm) ([2]; absorbance maximum): 465 nm; λmax Em. (nm) ([2]; fluorescence emission maximum): 574 nm |
| CCCCCC(O)c1cn(-c2ccc3n2[B-](F)(F)[N+]2=C(N(C)Cc4ccccc4)C=CC2=C3c2ccc(NC(C)=O)cc2)nn1 (racemic) [MKAC195-69] | – | – | – | φ (%) [1]: 3.467%; λmax Abs. (nm) ([2]; absorbance maximum): 467 nm; λmax Em. (nm) ([2]; fluorescence emission maximum): 560 nm |
| CCCC(C)c1cn(-c2ccc3n2[B-](F)(F)[N+]2=C(N4CCCC4)C=CC2=C3c2ccc(NC(C)=O)cc2)nn1 (racemic) [MKAC215-3] | – | – | – | φ (%) [1]: 3.81%; λmax Abs. (nm) ([2]; absorbance maximum): 461 nm; λmax Em. (nm) ([2]; fluorescence emission maximum): 569 nm |
| CCCCCC(O)c1cn(-c2ccc3n2[B-](F)(F)[N+]2=C(N4CCCC4)C=CC2=C3c2ccc(NC(C)=O)cc2)nn1 (racemic) [MKAC215-69] | – | – | – | φ (%) [1]: 2.00%; λmax Abs. (nm) ([2]; absorbance maximum): 462 nm; λmax Em. (nm) ([2]; fluorescence emission maximum): 566 nm |
| CC(C)(C)c1cn(-c2ccc3n2[B-](F)(F)[N+]2=C(N4CCCCC4)C=CC2=C3c2ccc(N)cc2)nn1 [BDC-1] | 0.18 | 475 | 593 | – |
| CN(C)Cc1cn(-c2ccc3n2[B-](F)(F)[N+]2=C(N4CCCCC4)C=CC2=C3c2ccc(N)cc2)nn1 [BDC-2] | 0.13 | 469 | 587 | – |
| CCCC(C)c1cn(-c2ccc3n2[B-](F)(F)[N+]2=C(N4CCCCC4)C=CC2=C3c2ccc(N)cc2)nn1 (stereo not shown) [BDC-3] | 0.37 | 475 | 567 | – |
| Nc1ccc(C2=C3C=CC(N4CCCCC4)=[N+]3[B-](F)(F)n3c2ccc3-n2cc(C3CC3)nn2)cc1 [BDC-4] | 0.16 | 475 | 590 | – |
| Nc1ccc(C2=C3C=CC(N4CCCCC4)=[N+]3[B-](F)(F)n3c2ccc3-n2cc(C3CCCC3)nn2)cc1 [BDC-5] | 0.16 | 476 | 582 | – |
| Nc1ccc(C2=C3C=CC(N4CCCCC4)=[N+]3[B-](F)(F)n3c2ccc3-n2cc(C3CCCCC3)nn2)cc1 [BDC-6] | 0.24 | 473 | 582 | – |
| Nc1ccc(C2=C3C=CC(N4CCCCC4)=[N+]3[B-](F)(F)n3c2ccc3-n2cc(CC3CCCC3)nn2)cc1 [BDC-7] | 0.23 | 476 | 573 | – |
| Nc1ccc(C2=C3C=CC(N4CCCCC4)=[N+]3[B-](F)(F)n3c2ccc3-n2cc(CC3CCCCC3)nn2)cc1 [BDC-8] | 0.24 | 473 | 585 | absorbance λmax ([2]; FIG. 2 normalized spectra): 473 nm; emission λmax ([2]; FIG. 2 normalized spectra): 585 nm |
| Cc1ccc(-c2cn(-c3ccc4n3[B-](F)(F)[N+]3=C(N5CCCCC5)C=CC3=C4c3ccc(N)cc3)nn2)cc1 [BDC-10] | 0.28 | 470 | 564 | – |
| CC(C)(C)c1ccc(-c2cn(-c3ccc4n3[B-](F)(F)[N+]3=C(N5CCCCC5)C=CC3=C4c3ccc(N)cc3)nn2)cc1 [BDC-11] | 0.74 | 471 | 552 | – |
| CCCCc1ccc(-c2cn(-c3ccc4n3[B-](F)(F)[N+]3=C(N5CCCCC5)C=CC3=C4c3ccc(N)cc3)nn2)cc1 [BDC-12] | 0.09 | 473 | 594 | – |
| CN(C)c1ccc(-c2cn(-c3ccc4n3[B-](F)(F)[N+]3=C(N5CCCCC5)C=CC3=C4c3ccc(N)cc3)nn2)cc1 [BDC-13] | 0.03 | 475 | 616 | – |
| COc1cc(OC)cc(-c2cn(-c3ccc4n3[B-](F)(F)[N+]3=C(N5CCCCC5)C=CC3=C4c3ccc(N)cc3)nn2)c1 [BDC-14] | 0.18 | 473 | 578 | – |
| Nc1ccc(C2=C3C=CC(N4CCCCC4)=[N+]3[B-](F)(F)n3c2ccc3-n2cc(-c3ccc(OC(F)(F)F)cc3)nn2)cc1 [BDC-15] | 0.19 | 469 | 549 | – |
| Nc1ccc(C2=C3C=CC(N4CCCCC4)=[N+]3[B-](F)(F)n3c2ccc3-n2cc(-c3ccc(F)c(F)c3)nn2)cc1 [BDC-16] | 0.18 | 471 | 585 | – |
| Nc1ccc(C2=C3C=CC(N4CCCCC4)=[N+]3[B-](F)(F)n3c2ccc3-n2cc(COc3ccccc3)nn2)cc1 [BDC-17] | 0.11 | 474 | 591 | – |
| CCCC(C)c1cn(-c2ccc3n2[B-](F)(F)[N+]2=C(NCc4cc(OC)ccc4OC)C=CC2=C3c2ccc(NC(=O)CCl)cc2)nn1 (stereo not shown) [MKCA181-3] | – | – | – | λmax Absorp. (nm) ([2]; MKCA compound library, absorbance maximum): 465 nm; λmax Emission (nm) ([2]; MKCA compound library, fluorescence emission maximum): 564 nm |
